This note sets out measurements from patent US9790209B2, “Kinase inhibitors” (Respivert Limited, priority 2012, dated 2017).

Structures are written as SMILES. Where two headings read alike, the source gives them in different places.

The subject of one assay is d-U937 cells. Briefly: LPS-induced TNFα/IL-8 release in d-U937 cells. It counts as cell-based. The conditions noted are these: Homo sapiens, dU937, LPS-stimulated d-U937 cells. As for the experimental part: U937 cells, a human monocytic cell line, are differentiated to macrophage-type cells by incubation with phorbol myristate acetate (PMA; 100 ng/mL) for 48 to 72 hr. Cells are pre-incubated with final concentrations of test compound for 2 hr and are then stimulated with 0.1 μg/mL of LPS (from E. Coli: 0111:B4, Sigma) for 4 hr. The supernatant is collected for determination of TNFα and IL-8 concentrations by sandwich ELISA (Duo-set, R&D systems). The inhibition of TNFα production is calculated as a percentage of that achieved by 10 μg/mL of BIRB796 at each concentration of test compound by comparison against vehicle control. The relative 50% effective concentration (REC50) is determined from the resultant concentration-response curve. The inhibition of IL-8 production is calculated at each concentration of test compound by comparison with vehicle control. The 50% inhibitory concentration (IC50) is determined from the resultant concentration-response curve.

Assay [1] has as its system intestinal mucosa biopsies from the inflamed regions of the colon of ulcerative colitis patients. Description: Human biopsy assay (ex-vivo cytokine release). It counts as cell-based. The conditions noted are these: 1 μg/mL, 24 hours; for Cytokine (IL-1β, IL-6 and IL-8) release compared to the DMSO control: biopsies from ulcerative colitis patients; for IL-1β release from biopsies of UC patients / IL-6 release from biopsies of UC patients / IL-8 release from biopsies of UC patients: relative to DMSO control = 100%. As for the experimental part:
Intestinal mucosa biopsies are obtained from the inflamed regions of the colon of IBD patients. The biopsy material is cut into small pieces (2-3 mm) and placed on steel grids in an organ culture chamber at 37° C. in a 5% CO2/95% O2 atmosphere in serum-free media. DMSO control or test compounds at the desired concentration are added to the tissue and incubated for 24 hr in the organ culture chamber. The supernatant is harvested for determination of IL-6, IL-8, IL-1P and TNFα levels by R&D ELISA.
Percentage inhibition of cytokine release by the test compounds is calculated relative to the cytokine release determined for the DMSO control (100%).

In assay [2] the test system is TNBS-induced colitis in mice. Briefly: TNBS-induced colitis in mice. Further details: Ulcer grade / LP inflammation: scale not given here. It counts as in vivo. The note with it: for LP inflammation / Ulcer grade: 2 days; for Activity in in vivo model of colonic inflammation (histopathology analysis) / Inflammatory cell infiltrate in the reticular and lamina propria zones: assay (iv) conducted over 2 days; for Ulcer grade and epithelial repair compared to the vehicle control: dosed orally at 5 mg/kg (Example 2: at 1 and at 5 mg/kg). As for the experimental part:
On Day 0 of the study TNBS (200 μL) is administered intra-colonically via a plastic catheter followed by BID dosing of the vehicle, reference or test compound for 2 or 4 days. During the study animals are weighed every day and stool observations are made and recorded as a score, based on stool consistency. At the time of sacrifice on Day 2 (or Day 4) the large intestine is removed and the length and weight recorded. Sections of the colon are taken for either MPO analysis to determine neutrophil infiltration or for histopathology involving scoring to determine disease severity.

The mark [3] stands for this setting: IL-8, read-out: IC50 Values for Inhibition of Cytokine Release dU937 cells IL-8.

On to `C#CC(C)(C)c1cc(NC(=O)Nc2ccc(Oc3ccnc(Nc4cc(C)c5[nH]ncc5c4)n3)c3ccccc23)n(-c2ccc(C)cc2)n1` [Example 2, 1-(4-((2-((7-Methyl-1H-indazol-5-yl)amino)pyrimidin-4-yl)oxy)naphthalen-1-yl)-3-(3-(2-methylbut-3-yn-2-yl)-1-(p-tolyl)-1H-pyrazol-5-yl)urea], for which, in the assay with d-U937 cells (setting [3]), the half-inhibitory concentration (IC50) is 0.9 nM. For the same compound, in the assay on d-U937 cells (TNFα (method describes REC50 relative to BIRB796), read-out: IC50 Values for Inhibition of Cytokine Release dU937 cells TNFα), the IC50 stood at 0.4 nM. Further, in assay [1], the “Cytokine (IL-1β, IL-6 and IL-8) release compared to the DMSO control” value is listed as “significantly inhibited”; the “IL-1β release from biopsies of UC patients” value came to 20 ± 13%; the “IL-6 release from biopsies of UC patients” value is 37 ± 41%; the “IL-8 release from biopsies of UC patients” value was found to be 22 ± 21%. Also, the LP inflammation in assay [2] (Experiment 1, 1 mg/kg oral BID, TNBS + Vehicle 3.9 ± 0.3) was 2.7 ± 0.4. Besides, the Ulcer grade in assay [2] (Experiment 1, 1 mg/kg oral BID, TNBS + Vehicle 4.0 ± 0.5) is on record as 3.4 ± 0.6. In addition, the LP inflammation in assay [2] (Experiment 1, 5 mg/kg oral BID, TNBS + Vehicle 3.9 ± 0.3) turned out to be 1.7 ± 0.4. Besides, the Ulcer grade in assay [2] (Experiment 1, 5 mg/kg oral BID, TNBS + Vehicle 4.0 ± 0.5) was found to be 2.4 ± 0.6. Also, in assay [2], the “Activity in in vivo model of colonic inflammation (histopathology analysis)” value is reported as “significant activity”; the “Inflammatory cell infiltrate in the reticular and lamina propria zones” value is listed as “marked reduction”; the “Ulcer grade and epithelial repair compared to the vehicle control” value is “marked improvements”.
`C#CC(C)(C)c1cc(NC(=O)Nc2ccc(Oc3ccnc(Nc4cc(OC)cc(OCCOCCOCCOC)c4)n3)c3ccccc23)n(-c2ccc(C)cc2)n1` [Example 13, 1-(4-((2-((3-Methoxy-5-(2-(2-(2-methoxyethoxy)ethoxy)ethoxy)phenyl)amino)pyrimidin-4-yl)oxy)naphthalen-1-yl)-3-(3-(2-methylbut-3-yn-2-yl)-1-(p-tolyl)-1H-pyrazol-5-yl)urea]: the IC50 in the assay with d-U937 cells (setting [3]) worked out at 0.5 nM. In assay [1], the “Cytokine (IL-1β, IL-6 and IL-8) release compared to the DMSO control” value was “significantly inhibited”; the “IL-1β release from biopsies of UC patients” value amounted to 3 ± 3%; the “IL-6 release from biopsies of UC patients” value amounted to 37 ± 52%; the “IL-8 release from biopsies of UC patients” value came to 7 ± 8%. For the same compound, the Ulcer grade in assay [2] (Experiment 2, 1 mg/kg oral BID, TNBS + Vehicle 4.4 ± 0.2) was determined as 3.0 ± 0.4. Also, the LP inflammation in assay [2] (Experiment 2, 1 mg/kg oral BID, TNBS + Vehicle 4.5 ± 0.2) was 2.8 ± 0.3. The Ulcer grade in assay [2] (Experiment 2, 5 mg/kg oral BID, TNBS + Vehicle 4.4 ± 0.2) stood at 2.9 ± 0.5. The LP inflammation in assay [2] (Experiment 2, 5 mg/kg oral BID, TNBS + Vehicle 4.5 ± 0.2) came out at 2.3 ± 0.3. In assay [2], the “Activity in in vivo model of colonic inflammation (histopathology analysis)” value was “significant activity”; the “Inflammatory cell infiltrate in the reticular and lamina propria zones” value is listed as “marked reduction”; the “Ulcer grade and epithelial repair compared to the vehicle control” value is recorded as “marked improvements”.

One may read the IC50 as the concentration that inhibits the measured activity by half.
